Measured values reported in patent US20150133666A1, “TRITOQUALINE FOR USE IN THE TREATMENT OF CYSTIC FIBROSIS” (priority 2012, published 2015).

Tests used:
histamine H4 receptor = biological target: T1, histamine H4 receptor (Homo sapiens, UniProt Q9H3N8); test: Inhibition of proliferation of CFU rich in H4 receptor (FIG. 4); assay type: cell-based; conditions: for activity on CFU proliferation when using an anti H4: FIG. 4, with an anti H4
T1 construct: endogenous in cells; host or cells: CFU (colony-forming units) rich in H4 receptor
T1 sequence (Q9H3N8 whole entry, species assumed): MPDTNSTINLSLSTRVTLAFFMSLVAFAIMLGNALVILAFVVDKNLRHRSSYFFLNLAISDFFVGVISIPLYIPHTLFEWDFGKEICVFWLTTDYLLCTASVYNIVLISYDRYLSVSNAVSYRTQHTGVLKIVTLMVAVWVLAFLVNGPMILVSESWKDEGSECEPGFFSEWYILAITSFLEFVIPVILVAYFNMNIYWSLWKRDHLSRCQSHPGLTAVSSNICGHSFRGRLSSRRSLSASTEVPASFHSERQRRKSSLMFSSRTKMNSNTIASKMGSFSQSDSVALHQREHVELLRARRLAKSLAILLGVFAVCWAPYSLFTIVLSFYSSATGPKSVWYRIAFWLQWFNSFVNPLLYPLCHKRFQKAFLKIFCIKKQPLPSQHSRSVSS

cystic fibrosis patients = conditions: background statement; cited from earlier work
[1] = white powder; degrades into cotarnine and phthalic acid; cited from earlier work
cystic fibrosis patient [2] = test: FEV1 (Forced Expiratory Volume in 1 second) in patients with cystic fibrosis treated with tritoqualine; assay type: in vivo, human
Experimental: During the initial consultation, a treatment based on tritoqualine was started at a daily dose of 200 mg.
Before therapy with tritoqualine, the FEV1 (Forced Expiratory Volume in 1 second) of this young patient was 0.39 L/s or 55.71% of the normal expected value (based on age, sex, and size). The flow rate was measured with a Jaeger® MasterScreen® Body plethysmography apparatus.
(§1) This level of ventilatory flow signals a severe respiratory impairment. This patient also had 15 lung infections per year prior to treatment. After 6 months of treatment with tritoqualine at a dose of 200 mg/day, the ventilatory flows were again measured. At this second visit, the FEV1 parameter was measured at 0.50 L/s. […] During the third visit, months after the first visit, the flows were again measured.
Before therapy with tritoqualine, the FEV1 of the patient was measured at 0.45 L/s or only 69.23% of the normal expected value (based on age, sex, and size).
(§2) This patient had had 8 lung infections per year prior to treatment. After 6 months of treatment at the daily dose of 400 mg of tritoqualine, the FEV1 parameter was measured again during a second consultation. The FEV1 parameter measured during this consultation went from 0.45 L/s to 0.50 L/s, or an improvement of 11.11% of the ventilatory flows.
A child with cystic fibrosis was treated during their first consultation with a dose of 300 mg of tritoqualine.
(§3) Before therapy with tritoqualine, the FEV1 of the patient was measured at 0.70 L/s, or 63.64% of the normal expected value (based on age, sex, and size). This patient had had 12 pulmonary infections per year before the treatment. After a 6-month treatment with a daily dose of 300 mg of tritoqualine, the FEV1 parameter was measured at their second consultation at 1.0 L/s. This represents an improvement of 42.86% over the initial visit. (100*([…])/0.70). After 12 months of treatment, the FEV1 parameter measured during the third consultation was 1.20 L/s or 71.43% improvement compared to the initial visit. (100*(1.20-0.70)/0.70).

cystic fibrosis patient [3] = test: Number of lung infections (superinfections) per year in patients with cystic fibrosis treated with tritoqualine; assay type: in vivo, human
Experimental: as §1
Over 12 months, the number of superinfections decreased from 15 to only 4 infections.
as §2
During the 12-month treatment with tritoqualine (400 mg daily), the patient benefited from a significant reduction in pulmonary infections, from 8 initially to only 3 infections after 12 months of treatment.
as §3
These decreased from 12 to 3 infections in one single year.

histidine decarboxylase = biological target: T2, histidine decarboxylase (Homo sapiens, UniProt P19113); conditions: background statement; cited from earlier work
T2 sequence (P19113 1-662): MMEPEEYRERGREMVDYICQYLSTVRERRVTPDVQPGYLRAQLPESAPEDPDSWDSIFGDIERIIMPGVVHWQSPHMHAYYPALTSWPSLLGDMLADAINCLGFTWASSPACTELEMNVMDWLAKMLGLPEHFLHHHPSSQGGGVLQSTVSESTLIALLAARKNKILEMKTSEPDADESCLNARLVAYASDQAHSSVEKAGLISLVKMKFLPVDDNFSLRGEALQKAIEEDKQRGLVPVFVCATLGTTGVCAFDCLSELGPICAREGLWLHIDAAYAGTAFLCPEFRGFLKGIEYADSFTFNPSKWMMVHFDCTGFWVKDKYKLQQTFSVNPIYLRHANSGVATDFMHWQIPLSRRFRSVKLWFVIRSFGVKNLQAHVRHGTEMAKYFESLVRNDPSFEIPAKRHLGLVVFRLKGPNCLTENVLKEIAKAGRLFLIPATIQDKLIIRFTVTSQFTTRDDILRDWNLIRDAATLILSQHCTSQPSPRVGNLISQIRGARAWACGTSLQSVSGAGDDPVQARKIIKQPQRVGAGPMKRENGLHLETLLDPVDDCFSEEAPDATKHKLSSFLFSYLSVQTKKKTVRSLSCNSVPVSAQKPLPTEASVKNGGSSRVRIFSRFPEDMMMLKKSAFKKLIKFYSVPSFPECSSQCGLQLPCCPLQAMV

NC(=NCc1ccc(Cl)cc1)SCCCc1cnc[nH]1 [Clobenpropit]
activity on CFU proliferation when using an anti H4 (histamine H4 receptor): greatly reduced

CC(C)(C)c1cc(C(C)(C)C)c(NC(=O)c2c[nH]c3ccccc3c2=O)cc1O [Kalydeco]
improvement in FEV1 (cystic fibrosis patients): 10%

CCOc1c(N)c2c(c(OCC)c1OCC)C(C1c3c(cc4c(c3OC)OCO4)CCN1C)OC2=O (centres unmarked) [tritoqualine, 7-Amino-4,5,6-triethoxy-3-(5,6,7,8-tetrahydro-4-methoxy-6-methyl-1,3-dioxolo[4,5-g]isoquinolin-5-yl) phthalide]
sensitivity to light [1]: very sensitive to light
proliferation of CFU rich in H4 receptor (histamine H4 receptor; FIG. 4): capable of inhibiting the proliferation
activity on CFU proliferation when using an anti H4 (histamine H4 receptor): greatly reduced
increase of FEV1 compared to initial flows (cystic fibrosis patient [2]; Example 1: child, 200 mg/day, after 6 months): 28.2%
FEV1 (cystic fibrosis patient [2]; Example 1: child, 200 mg/day, after 6 months (second visit), before therapy 0.39 L/s): 0.50 L/s
improvement of FEV1 compared to initial rates (cystic fibrosis patient [2]; Example 1: child, 200 mg/day, third visit): 58.7%
FEV1 (cystic fibrosis patient [2]; Example 1: child, 200 mg/day, third visit, before therapy 0.39 L/s): 0.62 L/s
increase of ventilatory flows (cystic fibrosis patient [2]; Example 1: summary statement): more than 50%
improvement of ventilatory flows (FEV1) (cystic fibrosis patient [2]; Example 2: adult, 400 mg/day, after 6 months vs baseline): 11.11%
FEV1 (cystic fibrosis patient [2]; Example 2: adult, 400 mg/day, after 6 months, before therapy 0.45 L/s): 0.50 L/s
increase in FEV1 compared to the initial visit (cystic fibrosis patient [2]; Example 2: adult, 400 mg/day, after 12 months): 28.89%
FEV1 (cystic fibrosis patient [2]; Example 2: adult, 400 mg/day, after 12 months, before therapy 0.45 L/s): 0.58 L/s
improvement of FEV1 over the initial visit (cystic fibrosis patient [2]; Example 3: child, 300 mg/day, after 6 months): 42.86%
FEV1 (cystic fibrosis patient [2]; Example 3: child, 300 mg/day, after 6 months, before therapy 0.70 L/s): 1.0 L/s
improvement of FEV1 compared to the initial visit (cystic fibrosis patient [2]; Example 3: child, 300 mg/day, after 12 months): 71.43%
FEV1 (cystic fibrosis patient [2]; Example 3: child, 300 mg/day, after 12 months, before therapy 0.70 L/s): 1.20 L/s
number of superinfections (cystic fibrosis patient [3]; Example 1: child, 200 mg/day, over 12 months, 15 per year prior to treatment): 4 infections
reduction factor of number of infections (cystic fibrosis patient [3]; Example 1: summary statement): divided by three
number of pulmonary infections (cystic fibrosis patient [3]; Example 2: adult, 400 mg/day, after 12 months, 8 initially): 3 infections
number of pulmonary infections (cystic fibrosis patient [3]; Example 3: child, 300 mg/day, in one year, 12 before treatment): 3 infections
inhibitory action on histidine decarboxylase (histidine decarboxylase): very low
